The values that follow come from patent US20250144067A1, “PERSONALIZED STARVATION THERAPY FOR CANCER” (Faeth Therapeutics, Inc., priority 2021, published 2025).

Assay [1] has as its system NCI-H292 lung cancer cells. Nature of the assay: FDA drug screening, complete media vs cholesterol-free media with simvastatin (TABLE 2). The assay is classed as cell-based, human.
Assay [2] has as its system NCI-H292 lung cancer cells. Description: FDA drug screening, complete media vs cholesterol-free media without statin (TABLE 1). The format is cell-based, human.
Setting [3] is: complete media minus cholesterol-free media + simvastatin, >0 enhanced anti-cancer activity, about 0 neutral, <0 antagonist.
Setting [4] is: Complete minus Cholesterol-free, >0 enhanced anti-cancer activity, about 0 neutral, <0 antagonist.
[5] abbreviates: NCI-H292 cells, cholesterol-free media without statin, FDA drug library screen.
The mark [6] stands for this setting: NCI-H292 cells, complete media, FDA drug library screen.
The mark [7] stands for this setting: NCI-H292 cells, drug in cholesterol-free media with simvastatin 0.04 μM.
The mark [8] stands for this setting: NCI-H292 cells, drug in complete media.
Setting [9] is: complete media vs cholesterol-free media + simvastatin (0.04 μM), >0 enhanced anti-cancer activity, about 0 neutral, <0 antagonist.
The mark [10] stands for this setting: NCI-H292 cells, cholesterol-free media without statin.
[11] abbreviates: NCI-H292 cells, cholesterol-free media with simvastatin 0.04 μM, FDA drug library screen (TABLE 2).
[12] abbreviates: NCI-H292 cells, complete media, FDA drug library screen (TABLE 2).
Where [13] appears, read: NCI-H292 cells, FDA drug library screen, cholesterol-free media with simvastatin 0.04 μM.
The mark [14] stands for this setting: NCI-H292 cells, FDA drug library screen, complete media.
Where [15] appears, read: complete vs cholesterol-free media, >0 enhanced anti-cancer activity, about 0 neutral, <0 antagonist.
Where [16] appears, read: NCI-H292 cells, FDA library drug in cholesterol-free media with simvastatin 0.04 μM.
Setting [17] is: NCI-H292 cells, FDA library drug in complete media.
Setting [18] is: Complete minus Cholesterol-free, greater than 0 enhanced anti-cancer activity, about 0 neutral, below 0 antagonists.
The mark [19] stands for this setting: NCI-H292 cells in cholesterol-free media without statin.
Where [20] appears, read: NCI-H292 cells in complete media.
Where [21] appears, read: Complete minus Cholesterol-free, greater than 0 enhanced anti-cancer activity, about 0 neutral, below 0 antagonist.
Setting [22] is: NCI-H292 cells, FDA drug library screen, cholesterol-free media without statin.
The mark [23] stands for this setting: complete vs cholesterol-free media, greater than 0 enhanced anti-cancer activity, about 0 neutral, below 0 antagonists.
The mark [24] stands for this setting: complete media minus cholesterol-free media + simvastatin (0.04 μM), >0 enhanced anti-cancer activity, about 0 neutral, <0 antagonist.

Counter-ions that a name gives are not always drawn. Like-named read-outs stand apart in the source and are kept apart here.

On to `Fc1ccc(C(c2ccc(F)cc2)N2CCN(C/C=C/c3ccccc3)CC2)cc1` [Flunarizine (dihydrochloride)], for which the “Cholesterol-free media + simvastatin (0.04 μM)” value in assay [1] (NCI-H292 cells, cholesterol-free media with simvastatin 0.04 μM, cell growth value in FDA drug screen) was found to be 0.8172. Also, the “Complete Media” value in assay [1] (NCI-H292 cells, complete media, cell growth value in FDA drug screen) is given as 0.8617. Moreover, the Difference in assay [1] (setting [3]) is 0.04; in assay [2] (setting [4]), 0.07. In addition, the Cholesterol-free in assay [2] (setting [5]) turned out to be 0.971. Further, the Complete in assay [2] (setting [6]) stood at 1.036.

With `CCCC(=O)Nc1ncnc2c1ncn2[C@@H]1O[C@@H]2COP(=O)(O)O[C@H]2[C@H]1OC(=O)CCC` [Bucladesine (sodium)], the “Cholesterol-free media + simvastatin (0.04 μM)” value in assay [1] (setting [7]) was 1.094. Further, the “Complete Media” value in assay [1] (setting [8]) is on record as 0.8977. For the same compound, the Difference is −0.20 in assay [1] (setting [9]) and −0.23 in assay [2] (setting [4]). Further, in assay [2] (setting [10]), the Cholesterol-free is 1.11. In addition, the Complete in assay [2] (NCI-H292 cells, complete media) was 0.8768.

On to `COc1cc([C@@H]2c3cc4c(cc3[C@H](O)[C@H]3COC(=O)[C@H]23)OCO4)cc(OC)c1OC` [Podofilox], for which, in assay [1] (setting [11]), the “Cholesterol-free media + simvastatin (0.04 μM)” value came out at 0.1667. In addition, the “Complete Media” value in assay [1] (setting [12]) is given as 0.1215. Further, the Difference is given as −0.05 in assay [1] (complete media minus cholesterol-free media + simvastatin (0.04 μM), […]) and −0.01 in assay [2] (Complete minus Cholesterol-free, […]). Besides, in assay [2] (setting [5]), the Cholesterol-free stood at 0.05355. Also, in assay [2] (setting [6]), the Complete is 0.04847.

Levamlodipine besylate: in assay [1], the “Cholesterol-free media + simvastatin (0.04 μM)” value is on record as 1.066, the “Complete Media” value amounted to 0.9372 and the Difference is −0.13. Further, in assay [2], the Cholesterol-free is given as 1.261 and the Difference is reported as −0.22.

As to `OC[C@@H](O)[C@@H](O)[C@H](O)[C@@H](O)CO` [D-Sorbitol], in assay [1] (setting [13]), the “Cholesterol-free media + simvastatin (0.04 μM)” value is given as 1.142. In addition, in assay [1] (setting [14]), the “Complete Media” value stood at 1.023. Also, the Difference in assay [1] (setting [9]) was −0.12; in assay [2] (setting [15]) it was 0.31. Besides, the Cholesterol-free in assay [2] (setting [5]) is recorded as 1.006. Moreover, the Complete in assay [2] (setting [6]) was 1.32.

As for `Cc1nnc(SCC2=C(C(=O)[O-])N3C(=O)[C@@H](NC(=O)Cn4cnnn4)[C@H]3SC2)s1.[Na+]` [Cefazolin (sodium)], the “Cholesterol-free media + simvastatin (0.04 μM)” value in assay [1] (setting [16]) is 1.378. Besides, in assay [1] (setting [17]), the “Complete Media” value came out at 1.076. The Difference in assay [1] (setting [9]) is −0.30; in assay [2] (setting [18]), −0.79. This compound also returned a Cholesterol-free in assay [2] (setting [19]) of 1.776. For the same compound, the Complete in assay [2] (setting [20]) was found to be 0.9866.

With `CCc1cc2c(cc1CC)CC(NC[C@H](O)c1ccc(O)c3[nH]c(=O)ccc13)C2` [Indacaterol], in assay [1] (setting [13]), the “Cholesterol-free media + simvastatin (0.04 μM)” value is 0.7696. Moreover, the “Complete Media” value in assay [1] (setting [14]) turned out to be 1.1. Further, the Difference was determined as 0.33 in assay [1] (setting [3]) and 0.70 in assay [2] (setting [15]). Moreover, the Cholesterol-free in assay [2] (setting [5]) is given as 0.6776. For the same compound, in assay [2] (setting [6]), the Complete was 1.376.

As to `CCN(CC)CC(=O)Nc1c(C)cccc1C` [Lidocaine], the “Cholesterol-free media + simvastatin (0.04 μM)” value in assay [1] (setting [16]) is recorded as 1.433. Besides, the “Complete Media” value in assay [1] (setting [17]) worked out at 1.088. Moreover, the Difference in assay [1] (setting [9]) was −0.34; in assay [2] (setting [18]), −0.78. This compound also registered a Cholesterol-free in assay [2] (setting [19]) of 1.775. Moreover, in assay [2] (setting [20]), the Complete was 0.9935.

On to Oclacitinib (maleate), for which, in assay [1] (setting [13]), the “Cholesterol-free media + simvastatin (0.04 μM)” value worked out at 0.9891. For the same compound, in assay [1] (setting [14]), the “Complete Media” value is given as 0.8445. Besides, the Difference is recorded as −0.14 in assay [1] (setting [9]) and −0.16 in assay [2] (setting [21]). Besides, the Cholesterol-free in assay [2] (setting [22]) was 0.7098. Moreover, in assay [2] (setting [14]), the Complete is reported as 0.5476.

For the compound `CC(C)[C@H](N)C(=O)OCCOCn1cnc2c(=O)[nH]c(N)nc21` [Valacyclovir (hydrochloride)], the “Cholesterol-free media + simvastatin (0.04 μM)” value in assay [1] (setting [13]) worked out at 0.9432. Further, the “Complete Media” value in assay [1] (setting [14]) was 1.26. For the same compound, the Difference in assay [1] (setting [3]) was 0.32; in assay [2] (setting [23]), −0.34. The compound also registered a Cholesterol-free in assay [2] (setting [10]) of 1.143. The compound further displayed a Complete in assay [2] (NCI-H292 cells, complete media) of 0.7981.

Regarding `C=CC(=O)N1CCC([C@@H]2CCNc3c(C(N)=O)c(-c4ccc(Oc5ccccc5)cc4)nn32)CC1` [Zanubrutinib], in assay [1] (setting [11]), the “Cholesterol-free media + simvastatin (0.04 μM)” value is listed as 0.7245. Besides, the “Complete Media” value in assay [1] (setting [12]) is recorded as 0.7031. Besides, the Difference was −0.02 in assay [1] (setting [24]) and −0.44 in assay [2] (setting [23]). Further, the Cholesterol-free in assay [2] (setting [10]) amounted to 0.7894. In addition, in assay [2] (NCI-H292 cells, complete media), the Complete was 0.3496.

Regarding `O=C(O)[C@@H]1CCCN1` [L-Proline], in assay [1], the “Cholesterol-free media + simvastatin (0.04 μM)” value is on record as 1.794, the “Complete Media” value is given as 1.088 and the Difference was −0.71. In assay [2], the Cholesterol-free was found to be 1.37, the Complete came out at 0.9909 and the Difference was −0.38.

Consider `Oc1c(I)cc(I)c2cccnc12` [Diiodohydroxyquinoline], for which the “Cholesterol-free media + simvastatin (0.04 μM)” value in assay [1] (setting [13]) is given as 0.94. The “Complete Media” value in assay [1] (setting [14]) is reported as 1.35. Also, the Difference is recorded as 0.41 in assay [1] (setting [3]) and −0.27 in assay [2] (setting [4]). The same compound registered a Cholesterol-free in assay [2] (setting [10]) of 1.098. This compound gave a Complete in assay [2] (NCI-H292 cells, complete media) of 0.8284.

On to `C[C@H](NCc1ccc(OCc2cccc(F)c2)cc1)C(N)=O` [Safinamide], for which the “Cholesterol-free media + simvastatin (0.04 μM)” value in assay [1] (setting [11]) worked out at 1.059. Moreover, the “Complete Media” value in assay [1] (setting [12]) was 1.012. Moreover, the Difference is recorded as −0.05 in assay [1] (setting [24]) and −0.13 in assay [2] (setting [21]). In assay [2] (setting [22]), this compound showed a Cholesterol-free of 1.086. The compound also displayed a Complete in assay [2] (setting [14]) of 0.9537.

For `O=C(O)c1ccccc1OP(=O)(O)O` [2-(Phosphonooxy)benzoic acid], the “Cholesterol-free media + simvastatin (0.04 μM)” value in assay [1] (setting [7]) is 1.147. Further, in assay [1] (setting [8]), the “Complete Media” value is 0.9779. Further, the Difference in assay [1] (setting [9]) is recorded as −0.17; in assay [2] (setting [18]), −0.51. In assay [2] (setting [19]), this compound returned a Cholesterol-free of 1.515. In assay [2] (setting [20]), this compound had a Complete of 1.005.

As for `CCCCS(=O)(=O)N[C@@H](Cc1ccc(OCCCCC2CCNCC2)cc1)C(=O)O` [Tirofiban (hydrochloride monohydrate)], the “Cholesterol-free media + simvastatin (0.04 μM)” value in assay [1] (setting [13]) is on record as 1.824. Further, the “Complete Media” value in assay [1] (setting [14]) worked out at 1.693. For the same compound, the Difference in assay [1] (setting [9]) was −0.13; in assay [2] (setting [18]), −0.96. Moreover, the Cholesterol-free in assay [2] (setting [19]) came to 1.842. The compound also showed a Complete in assay [2] (setting [20]) of 0.8788.

With `CCC[C@H](NC(=O)[C@@H]1[C@H]2CCC[C@H]2CN1C(=O)[C@@H](NC(=O)[C@@H](NC(=O)c1cnccn1)C1CCCCC1)C(C)(C)C)C(=O)C(=O)NC1CC1` [Telaprevir], the “Cholesterol-free media + simvastatin (0.04 μM)” value in assay [1] (setting [13]) is given as 1.084. Besides, in assay [1] (setting [14]), the “Complete Media” value amounted to 0.9529. Besides, the Difference in assay [1] (complete media vs cholesterol-free media + simvastatin (0.04 μM), […]) is recorded as −0.13; in assay [2] (complete vs cholesterol-free media, […]), −0.39. Further, in assay [2] (setting [10]), the Cholesterol-free is 1.55. This compound registered a Complete in assay [2] (NCI-H292 cells, complete media) of 1.165.

Consider `CC1CCCC(C)N1CCCC(O)(c1ccccc1)c1ccccn1` (centres unmarked) [Pirmenol (hydrochloride)], for which the “Cholesterol-free media + simvastatin (0.04 μM)” value in assay [1] (setting [13]) amounted to 1.664. Further, the “Complete Media” value in assay [1] (setting [14]) is on record as 1.547. The Difference is reported as −0.12 in assay [1] (setting [9]) and −0.15 in assay [2] (setting [21]). In addition, the Cholesterol-free in assay [2] (setting [22]) is recorded as 0.8727. The same compound showed a Complete in assay [2] (setting [14]) of 0.7238.

As to `O=[N+]([O-])c1cn2c(n1)OC[C@@H](OCc1ccc(OC(F)(F)F)cc1)C2` [Pretomanid], the “Cholesterol-free media + simvastatin (0.04 μM)” value in assay [1] (setting [16]) was 1.251. In addition, in assay [1] (setting [17]), the “Complete Media” value was found to be 0.9046. In addition, the Difference in assay [1] (setting [9]) is −0.35; in assay [2] (setting [4]) it was −0.21. In addition, the Cholesterol-free in assay [2] (setting [10]) turned out to be 1.474. In assay [2] (NCI-H292 cells, complete media), the Complete is 1.26.
